From US20260159481A1, “INDOLE DERIVATIVE WITH SUBSTITUENT AND PHARMACEUTICAL USE” (MITOIMMUNE THERAPEUTICS INC., priority 2023, published 2026)

System: cardiac cells (H9C2)
Assay: Protective effect against t-BHP-induced cell death in cardiac cells (LDH release)
Assay type: cell-based
Settings: Rattus norvegicus, t-BHP 400 PM, 2 hours, read-out: EC50, protective effect against cell death due to t-BHP induction
Protocol: To confirm a protective effect on cardiac cells, H9C2 cells were seeded at 1.5×10^4 cells/well in a 96-well plate and cultured for 24 hours. The example compounds were diluted to have the final concentration of 0.001, 0.01, 0.03, 0.1, 0.3, 1, 3, 10, and 30 PM, respectively, and then added to different wells, and the resulting cells were cultured for 15 to 20 minutes. Tert-butyl hydroperoxide (t-BHP) was treated to have the final concentration of 400 PM, and the resulting cells were cultured for 2 hours. To confirm the cell death protection effect of each compound, the degree of extracellular secretion of lactate dehydrogenase (LDH) was measured using a cytotoxicity LDH assay kit [Dojindo; CK12]. Briefly, after 2 hours of t-BHP treatment on the cells, 70 μL of the supernatant was taken from the 96-well plate where the cells were cultured and transferred to a new 96-well plate. The assay buffer included in the kit was added at 70 μL/well (equal to that of the sample) and the plate was covered with foil to block light and allowed to react for 15 minutes at room temperature. While observing a color change of each sample, 35 μL/well of a stop solution was added, an absorbance at 490 nm was measured using an iD3 spectrophotometer, and an EC50 value was calculated.

Compared with `OC1CCC(OCCOCc2cc(NC3CCOCC3)c3[nH]c(-c4ccccc4)cc3c2)CC1` (stereo not drawn) [Example 38, 4-(2-((2-phenyl-7-((tetrahydro-2H-pyran-4-yl)amino)-1H-indol-5-yl)methoxy)ethoxy)cyclohexan-1-ol], `FCCOCc1cc(NC2CCOCC2)c2[nH]c(-c3ccccc3)cc2c1` [Example 39, 5-((2-fluoroethoxy)methyl)-2-phenyl-N-(tetrahydro-2H-pyran-4-yl)-1H-indol-7-amine] is lower in EC50: over 1000 nM for the first, at most 300 nM for the second. The second is the more potent here.

`c1ccc(-c2cc3cc(COCCN4CCOCC4)cc(NC4CCOCC4)c3[nH]2)cc1` [Example 42, 5-((2-morpholinoethoxy)methyl)-2-phenyl-N-(tetrahydro-2H-pyran-4-yl)-1H-indol-7-amine] and `c1ccc(-c2cc3cc(COCCN4CCSCC4)cc(NC4CCOCC4)c3[nH]2)cc1` [Example 46, 2-phenyl-N-(tetrahydro-2H-pyran-4-yl)-5-((2-thiomorpholinoethoxy)methyl)-1H-indol-7-amine] cannot be ordered by EC50: at most 300 nM for the first, at most 300 nM for the second.

`O=S1(=O)CCN(CCOCc2cc(NC3CCCC3)c3[nH]c(-c4ccccc4)cc3c2)CC1` [Example 43, 4-(2-((7-(cyclopentylamino)-2-phenyl-1H-indol-5-yl)methoxy)ethyl)thiomorpholine 1,1-dioxide] and `O=S1(=O)CCN(CCOCc2cc(NC3CCOCC3)c3[nH]c(-c4ccccc4)cc3c2)CC1` [Example 47, 4-(2-((2-phenyl-7-((tetrahydro-2H-pyran-4-yl)amino)-1H-indol-5-yl)methoxy)ethyl)thiomorpholine 1,1-dioxide] cannot be ordered by EC50: at most 300 nM for the first, 300 to 1000 nM for the second.

`CS(=O)(=O)CCOCc1cc(NC2CCCC2)c2[nH]c(-c3ccccc3)cc2c1` [Example 44, N-cyclopentyl-5-((2-(methylsulfonyl)ethoxy)methyl)-2-phenyl-1H-indol-7-amine] and `CS(=O)(=O)CCOCc1cc(NC2CCOCC2)c2[nH]c(-c3ccccc3)cc2c1` [Example 45, 5-((2-(methylsulfonyl)ethoxy)methyl)-2-phenyl-N-(tetrahydro-2H-pyran-4-yl)-1H-indol-7-amine] cannot be ordered by EC50: at most 300 nM for the first, at most 300 nM for the second.

`OCCNCCOCc1cc(NC2CCOCC2)c2[nH]c(-c3ccccc3)cc2c1` [Example 48, 2-((2-((2-phenyl-7-((tetrahydro-2H-pyran-4-yl)amino)-1H-indol-5-yl)methoxy)ethyl)amino)ethan-1-ol] and `CN(CCO)CCOCc1cc(NC2CCOCC2)c2[nH]c(-c3ccccc3)cc2c1` [Example 53, 2-(methyl(2-((2-phenyl-7-((tetrahydro-2H-pyran-4-yl)amino)-1H-indol-5-yl)methoxy)ethyl)amino)ethan-1-ol] cannot be ordered by EC50: 300 to 1000 nM for the first, at most 300 nM for the second.

`COCCNC(=O)c1cc(NC2CCOCC2)c2[nH]c(-c3ccccc3)cc2c1` [Example 49, N-(2-methoxyethyl)-2-phenyl-7-((tetrahydro-2H-pyran-4-yl)amino)-1H-indol-5-carboxamide] and `COCCN(C)C(=O)c1cc(NC2CCOCC2)c2[nH]c(-c3ccccc3)cc2c1` [Example 51, N-(2-methoxyethyl)-N-methyl-2-phenyl-7-((tetrahydro-2H-pyran-4-yl)amino)-1H-indole-5-carboxamide] cannot be ordered by EC50: at most 300 nM for the first, at most 300 nM for the second.

Compared with `COCCNCc1cc(NC2CCOCC2)c2[nH]c(-c3ccccc3)cc2c1` [Example 50, 5-(((2-methoxyethyl)amino)methyl)-2-phenyl-N-(tetrahydro-2H-pyran-4-yl)-1H-indol-7-amine], `COCCOCCN(C)C(=O)c1cc(NC2CCOCC2)c2[nH]c(-c3ccccc3)cc2c1` [Example 52, N-(2-(2-methoxyethoxy)ethyl)-N-methyl-2-phenyl-7-((tetrahydro-2H-pyran-4-yl)amino)-1H-indole-5-carboxamide] is higher in EC50: at most 300 nM for the first, over 1000 nM for the second.

For `CN(CCOCCO)C(=O)c1cc(NC2CCOCC2)c2[nH]c(-c3ccccc3)cc2c1` [Example 54, N-(2-(2-hydroxyethoxy)ethyl)-N-methyl-2-phenyl-7-((tetrahydro-2H-pyran-4-yl)amino)-1H-indole-5-carboxamide], the EC50 was 300 to 1000 nM.
